Laboratory results reported in paper PMC6568410, “A scorpion venom peptide derivative BmKn‒22 with potent antibiofilm activity against Pseudomonas aeruginosa” (PLoS ONE, 2019).
Where no end group is shown, it is not given here.

How the values were obtained:
[1] = system: lasI mRNA; test: qRT-PCR of quorum sensing-related gene lasI; type: cell-based, Pseudomonas aeruginosa; conditions: 800 µM, 10 h
Procedure: (§1) The effects of BmKn‒22 peptide on the expression of quorum sensing‒related genes in P. aeruginosa PAO1 were assessed by qPCR. Briefly, bacterial suspension at approximately 10^7 CFU/mL was cultured in the presence or absence of the test peptide (800 μM, final concentration) at 37 ^OC for 10 h using a shaking incubator. After centrifugation at 4,500 rpm for 10 minutes, the bacterial cells were harvested and subsequently subjected to total RNA extraction using TRIzol® reagent (Invitrogen, USA) as per the manufacturer’s instruction. The concentration of the extracted RNA was measured using Nanodrop spectrophotometer (NanoDrop Technologies, USA). Thereafter, 1 μg of extracted RNA was reverse-transcribed into cDNA using Random Hexamer primer and RevertAid First Strand cDNA synthesis kit (Fermantas), which was amplified by real-time PCR. The primers for the genes lasI, lasR, RhlI, RhlR and 16S rRNA were used (Table 2). All primers were synthesized by the Integrated DNA Technology (IDT), Canada. The reaction mixture consisted of 1× AccuPower® 2X GreenStar™ qPCR Master Mix, 0.4 μmol/L each forward primer and reverse primer and 1 μL of cDNA in a final volume of 10 μL. Thermal cycles used was 95 ^OC for 2.5 min, followed by 40 cycles of 95 ^OC for 30 sec, 60 ^OC for 30 sec and 72 ^OC for 30 sec. The expression level of the target gene was normalized to 16S rRNA gene. Relative expression of the target genes was obtained from 2^‒ΔΔct.

[2] = system: P. aeruginosa PAO1 biofilms; test: Antibiofilm activity of BmKn-22 and azithromycin alone or in combination, crystal violet; type: cell-based, Pseudomonas aeruginosa
Procedure: The effect of BmKn‒2 peptide and derivatives on biofilm formation of P. aeruginosa PAO1 was determined according to the method published previously with some modifications. Briefly, 100 μL of the test peptides was plated into the wells of flat-bottomed 96-well microtiter plates (Nunc™, Roskilde, Denmark) at the final concentrations of 200 ‒ 800 μM. Aliquots of the P. aeruginosa PAO1 suspension were then inoculated to the wells of 96-well microtiter plates to obtain a final concentration of 10^6 CFU/mL. Culture without the test peptides was used as the untreated control. After incubation at 37 ^OC for 24 h without agitation, planktonic cells were removed and the plates were gently rinsed twice with phosphate buffered saline (PBS) pH 7.4. Biofilms were then stained with 0.1% crystal violet solution (Merck, Darmstadt, Germany) for 10 minutes at room temperature. Excess stains were rinsed off with PBS pH 7.4 and the plates were left dry at 37 ^OC for 2 h. Subsequently, biofilm biomass was solubilized with 30% acetic acid and the optical density (OD) measured at 550 nm using a microplate reader (BioTek Synergy HT).
Briefly, P. aeruginosa PAO1 suspension (10^6 CFU/mL, final concentration) was added to the wells of flat-bottomed 96-well microtiter plates (Nunc) containing the test peptide, azithromycin (AZM; Sigma) alone or in combinations. […] Biofilm formation was employed by measuring biofilm biomass stained with crystal violet as a protocol described in previous section.

[3] = system: P. aeruginosa PAO1; test: Growth assay, standard plate counts; type: cell-based, Pseudomonas aeruginosa; conditions: 800 µM, 24 h
Procedure: The effects of BmKn‒2 peptide and its derivatives on growth of P. aeruginosa PAO1 were carried out as described previously with some modifications. Bacterial suspension (10^6 CFU/mL) and the test peptides (800 μM, final concentration) were incubated at 37 ^OC at 150 rpm. Bacterial culture without the test peptides was used as the untreated control. After 24 h, bacterial concentration was evaluated. Cultures from each treatment were taken and 10-fold serial dilution was performed; 100 μL of each dilution was then spread on LB agar plates. Following incubation at 37°C for 24 h, the colonies were counted and expressed as log10 CFU/mL.

[4] = system: L929 mouse fibroblast cells; test: Cytotoxicity, MTT assay; type: cell-based; conditions: 800 µM, 24 h; for Cell viability (%): L929 cells
Procedure: The toxicity of the test peptides against L929 mouse fibroblast cells was assessed by 3-(4,5-dimethylthiazol-2-yl)-2,5-diphenyltetrazolium bromide (MTT) assay. L929 mouse fibroblast cells from American Type Culture Collection (ATCC, Manassas, VA, USA) were cultured in Dulbecco's Modified Eagle Medium (DMEM; HyClone, Utah, USA) supplemented with 10% fetal bovine serum (Gibco, South America), 10 mM 4-(2-hydroxyethyl)-1 piperazineethanesulfonic acid (HEPES; HyClone, Utah, USA), 2 mM L-glutamine (Gibco, Brazil) and 100 U/mL penicillin and 100 μg/ml streptomycin (Gibco, USA) in a 5% CO2 atmosphere at 37°C. L929 cells (2×10^4 cells/well) were seeded in 96-well plates (Nunc) and incubated overnight. The culture medium was discarded and replaced by 100 μL of fresh DMEM containing the test compounds (final concentration 800 μM). Cells without the test compounds served as untreated control. After 24 h incubation, 20 μL of MTT solution (5 mg/mL; Sigma, St. Louis, MO, USA) was added and incubated for 3 h. The culture supernatant was removed and 100 μL dimethyl sulfoxide was added to each well to dissolve the formazan crystals. The absorbance was measured at 540 nm on a microplate reader (BioTek Synergy HT). Percentage of cell viability was calculated according to the equation: (OD of treated cells/ OD of untreated cells) × 100.

[5] = system: rhlR mRNA; test: qRT-PCR of quorum sensing-related gene rhlR; type: cell-based, Pseudomonas aeruginosa; conditions: 800 µM, 10 h
Procedure: as §1

[6] = normalized to 16S rRNA, 2^-ΔΔct, untreated control = 1, mean of 2 independent experiments in quadruplicate
[7] = compared with untreated control, result in words

Sequence: FIGAIARLLSK [BmKn-22]
- Relative mRNA expression, lasI [1, 6]: 0.403
- Relative mRNA expression, lasI ([1]; Exp. 1): 0.314
- Relative mRNA expression, lasI ([1]; Exp. 2): 0.491
- mRNA expression of lasI ([1]; result in words): significantly (P < 0.05) decreased
- biofilm reduction ([2]; BmKn-22 at 200 µM combined with 64 µg/mL azithromycin (1/2 MIC)): Up to 51.39%
- biofilm reduction ([2]; BmKn-22 at 400 µM combined with 64 µg/mL azithromycin (1/2 MIC)): ≤ 62.05%
- biofilm reduction ([2]; BmKn-22 at 800 µM combined with 64 µg/mL azithromycin (1/2 MIC)): 96.97%
- Biofilm biomass (% control) ([2]; peptide alone 200 µM, 24 h, 37 °C, crystal violet, mean of 3 independent experiments): 80.903 % control
- Biofilm biomass (% control) ([2]; peptide alone 200 µM, Exp. 1): 94.033 % control
- Biofilm biomass (% control) ([2]; peptide alone 200 µM, Exp. 2): 82.424 % control
- Biofilm biomass (% control) ([2]; peptide alone 200 µM, Exp. 3): 66.251 % control
- Biofilm biomass (% control) ([2]; peptide alone 400 µM, 24 h, 37 °C, crystal violet, mean of 3 independent experiments): 67.309 % control
- Biofilm biomass (% control) ([2]; peptide alone 400 µM, Exp. 1): 75.858 % control
- Biofilm biomass (% control) ([2]; peptide alone 400 µM, Exp. 2): 68.773 % control
- Biofilm biomass (% control) ([2]; peptide alone 400 µM, Exp. 3): 57.297 % control
- Biofilm biomass (% control) ([2]; peptide alone 800 µM, 24 h, 37 °C, crystal violet, mean of 3 independent experiments): 43.753 % control
- Biofilm biomass (% control) ([2]; peptide alone 800 µM, Exp. 1): 51.716 % control
- Biofilm biomass (% control) ([2]; peptide alone 800 µM, Exp. 2): 46.698 % control
- Biofilm biomass (% control) ([2]; peptide alone 800 µM, Exp. 3): 32.845 % control
- Bacterial growth, Log10 CFU/mL ([3]; 37 °C, 150 rpm, plate counts, untreated control 9.183, mean of 3 independent experiments): 9.323 Log10 CFU/mL
- effect on bacterial counts (growth) [3, 7]: no significant (P > 0.05) differences in bacterial counts
- Bacterial growth, Log10 CFU/mL ([3]; Exp. 1 (untreated control 9.082)): 9.235 Log10 CFU/mL
- Bacterial growth, Log10 CFU/mL ([3]; Exp. 2 (untreated control 9.198)): 9.292 Log10 CFU/mL
- Bacterial growth, Log10 CFU/mL ([3]; Exp. 3 (untreated control 9.268)): 9.443 Log10 CFU/mL
- effect on viability of L929 cells [4, 7]: low effects on cell viability
- Cell viability (%) ([4]; Exp. 1): 108.407%
- Cell viability (%) ([4]; Exp. 2): 75.218%
- Cell viability (%) ([4]; Exp. 3): 94.787%
- Relative mRNA expression, rhlR [5, 6]: 0.511
- Relative mRNA expression, rhlR ([5]; Exp. 1): 0.408
- Relative mRNA expression, rhlR ([5]; Exp. 2): 0.614
- mRNA expression of rhlR ([5]; result in words): significantly (P < 0.05) decreased
